Data set [1] concerns optic nerve axons. Briefly: Optic nerve pathology: axonal damage caused by oxygen- and glucose-deprivation (OGD). The settings on record: for Index of Axonopathy: mean ± S.E.M.; for Protection against axonal damage caused by OGD (in words): OGD-exposed rat optic nerve. Format: cell-based, rat. How it is done: Optic nerves were excised from adult Wistar rats (weighing 240-280 g) after decapitation. They comprised lengths of nerve (each about 9 mm long) running from immediately behind the eyeball to just in front of the optic chiasm. The nerves were incubated in Erlenmeyer flasks (50 ml capacity) containing 20 ml of an artificial CSF (aCSF) solution composed of (mM): NaCl (120) KCl (2.0), CaCl2 (2.0), NaHCO3 (26), KH2PO4 (1.18), MgSO4 (1.19) and glucose (11), continuously gassed with 95% O2/5% CO2. The flasks were held in a shaking water bath at 37° C.
(§1) After 1-2 h preincubation in aCSF, test nerves received the NO donor, PAPA/NO (1 mM) for 2 h or OGD was imposed by transferring the nerves for 1 h into aCSF lacking glucose and gassed with 5% CO2 in N2. Afterwards, the nerves were allowed a 90 min recovery period in aCSF. Putative protectant drugs were present from 15 min before until 15 min after the NO exposure or OGD.
The nerves were then fixed for 2 h in a mixture of 4% paraformaldehyde and 2.5% glutaraldehyde in 0.1 M phosphate buffer (pH 7.4), and post-fixed with 1% osmium tetroxide for 1 h. After dehydration the tissues were embedded in Durcupan resin. Semithin (1 μm) sections were stained with either toluidine blue.
To quantify the extent of axonal pathology under the light microscope, the degree of distension of the axon profiles was measured using an image analysis system as described previously (Garthwaite et al., (1999), Neuroscience, 94, 1219-1230). The data are expressed as mean number of axons greater than 2.5 μm in diameter per […] (±S.E.M.) in fields from 5-39 nerves.

Data set [2] concerns optic nerve axons. Nature of the data set: Optic nerve pathology: axonal damage caused by the NO donor PAPA/NO. Format: cell-based, rat. The settings on record: for Index of Axonopathy: mean ± S.E.M.; for Effect on axonal pathology caused by NO (in words): PAPA/NO-exposed rat optic nerve. How it is done: Optic nerves were excised from adult Wistar rats (weighing 240-280 g) after decapitation. They comprised lengths of nerve (each about 9 mm long) running from immediately behind the eyeball to just in front of the optic chiasm. […] The flasks were held in a shaking water bath at 37° C.
as §1
After dehydration the tissues were embedded in Durcupan resin. Semithin (1 μm) sections were stained with either toluidine blue.
The data are expressed as mean number of axons greater than 2.5 μm in diameter per […] (±S.E.M.) in fields from 5-39 nerves.

For a further data set, the system named is sodium channels. Nature of the data set: [14C]-labelled guanidine flux through sodium channels. It is filed as biochemical, rat. The settings on record: inhibition of flux of [14C]-labelled guanidine through sodium channels.

In general, melting point refers to the temperature of the solid-liquid transition. For the compound `COC(=O)c1nn(Cc2ccccc2)c2ccccc12`, the melting point lay in the range of 72 to 73 °C.

As for `CN1CCN(c2ncc(-c3cc(Cl)cc(Cl)c3Cl)c(N)n2)CC1` [BW619C89, reference compound], the “Index of Axonopathy” value with optic nerve axons [1] (OGD 1 h + drug at 100 μM) is reported as 53 ± 5 axons greater than 2.5 μm in diameter per 10^4 m^2; in the data set with optic nerve axons [2] (PAPA/NO (1 mM) + drug at 100 μM), 26 ± 3 axons greater than 2.5 μm in diameter per 10^4 m^2. The “Protection against axonal damage caused by OGD (in words)” value in the data set with optic nerve axons [1] is recorded as “able to protect to an equivalent degree”. Moreover, the “Effect on axonal pathology caused by NO (in words)” value in the data set on optic nerve axons [2] is listed as “eliminated”.

In general, IC50 refers to the concentration at which inhibition is half-maximal. Low readings indicate greater potency in that assay, high ones weaker potency in that assay. With `OCc1ccc(-c2nn(Cc3ccccc3)c3ccccc23)o1` [Example 4, 1-Benzyl-3-(5-hydroxymethyl-2-furyl)-1H-indazole], the “Index of Axonopathy” value is reported as 72 ± 15 axons greater than 2.5 μm in diameter per 10^4 m^2 in the data set with optic nerve axons [1] (OGD 1 h + drug, concentration not given) and 24 ± 4 axons greater than 2.5 μm in diameter per 10^4 m^2 in the data set with optic nerve axons [2] (PAPA/NO (1 mM) + drug at 30 μM). Further, the “Protection against axonal damage caused by OGD (in words)” value in the data set with optic nerve axons [1] was “able to protect to an equivalent degree”. In the data set on sodium channels, this compound yielded a concentration for half-maximal inhibition (IC50) of 17 µM. The “Effect on axonal pathology caused by NO (in words)” value in the data set with optic nerve axons [2] is listed as “as effective as both these other agents”.

Turning to `O=C(O)c1n[nH]c2ccccc12` [Example 48, Indazole-3-carboxylic acid], the melting point was 261 to 263 °C (dec.).

In the case of `CN(C)Cc1noc(-c2nn(Cc3ccccc3)c3ccccc23)n1` [Example 52, 1-Benzyl-3-[3-(N,N-dimethylaminomethyl)-1,2,4oxadiazol-5-yl]indazole], the melting point fell in the range of 93 to 95 °C. The half-maximal inhibitory concentration (IC50) in the data set with sodium channels turned out to be 33.9 µM.

These data come from patent US7790761B2, “Blockade of voltage dependent sodium channels” (University College London, priority 2000, dated 2010).
